According to patent publication US20260055161A1, “PSCA CAR-T CELLS” (Regeneron Pharmaceuticals, Inc., priority 2018, published 2026):

Legend:
[1] = healthy volunteers; cited from earlier work
[2] = test system: serum cytokines and chemokines (IP-10, TNF-α, MCP-1, MIP-1α, MIP-1β); assay: peripheral cytokine profiles over time; type: in vivo, human
Procedure: Cohort 3 (1.25×10^6 cells/kg) was the initial starting cohort for cell dose escalation decisions in Part 1 when PSCA CAR-T cells are administered with rimiducid. Cohorts of 3 subjects were treated with escalating doses of PSCA CAR-T cells on Day 0 with a fixed, single dose of rimiducid (0.4 mg/kg) on Day 7. The doses of PSCA CAR-T cells are detailed in FIG. 8.

cells = assay: AP1903 amount needed in vitro for effective signaling of cells; type: cell-based
peripheral lymphocytes = settings: 1 patient with increased IL-7 and IL-15 levels after lymphodepletion
Procedure: FIG. 8 provides a table showing patient demographics and clinical characteristics. *Cytoxan 1 g/m^2 by IV infusion on Day −3; † PSCA (copies per 10^6 copies hACTB) was measured at screening.

CC[C@H](C(=O)N1CCCC[C@H]1C(=O)O[C@H](CCc1ccc(OC)c(OC)c1)c1cccc(OCC(=O)NCCNC(=O)COc2cccc([C@@H](CCc3ccc(OC)c(OC)c3)OC(=O)[C@@H]3CCCCN3C(=O)[C@@H](CC)c3cc(OC)c(OC)c(OC)c3)c2)c1)c1cc(OC)c(OC)c(OC)c1 (relative stereo) [rimiducid, 2-Piperidinecarboxylic acid, 1-[(2S)-1-oxo-2-(3,4,5-trimethoxyphenyl)butyl]-, 1,2-ethanediylbis[imino(2-oxo-2,1-ethanediyl)oxy-3,1-phenylene[(1R)-3-(3,4-dimethoxyphenyl)propylidene]]ester, [2S-[1(R*),2R*[S*[S*[1(R*),2R*]]]]]-(9C1)]
safety [1]: safe | serum cytokines (IP-10, TNF-α) ([2]; 8 patients that received rimiducid after CAR-T cells): all had elevated cytokines (IP-10, TNF-α) correlated with cell expansion | chemokine levels (MCP-1, MIP-1α, MIP-1β) ([2]; many patients, after rim infusion): Increased chemokine levels | amount needed in vitro for effective signaling of cells (cells): 10 to 100 nM | amount needed for effective signaling, equivalent (cells; MW: 1412 Da): 14 to 140 µg/L

O=P1(N(CCCl)CCCl)NCCCO1 (stereo not drawn) [cyclophosphamide]
peripheral lymphocyte count, of the starting level (peripheral lymphocytes): 31%
